# From US20260285853A1, “COMPOUNDS AND METHODS FOR MODULATING SPLICING” (REMIX THERAPEUTICS INC., priority 2023, published 2026)
# Where a name gives a salt, the structure may show the parent alone.
# Columns and labels:
# Assay type in all cases: cell-based
# HTT mRNA [1] = experiment: Gene panel canonical junction qPCR assay, decrease in CJ mRNA, Table 3; conditions: decrease in canonical junction (CJ) mRNA, gene panel qPCR, Table 3
# In short: (§1)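 Canonical exon-junction (CJ) transcript measured by 5′ nuclease RT-qPCR, normalized to GAPDH, GUSB or PPIA and to DMSO control (2^(−ΔΔCt)). A673 or K562 cells treated 24 h at 37° C with an 11-point 3-fold dilution series, top 10 uM, DMSO ≤0.25%. IC50 from 4-parameter logistic fit of percentage CJ decrease.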
# MYB mRNA [2] = experiment: as above; conditions: decrease in canonical junction (CJ) mRNA, gene panel qPCR, Table 3
# In short: as §1
# HTT mRNA [3] = experiment: Splicing RT-qPCR assay (THP), Table 2A; conditions: Table 2A (THP); for AC50: AJ mRNA increase, read-out: HTT AJ (increase in alternative junction mRNA, AC50); for IC50: CJ mRNA decrease, read-out: HTT CJ (decrease in canonical junction mRNA, IC50)
# [4] = test system: SH-SY5Y (human neuroblastoma) cells; experiment: Cell viability, Cell Titer Glo 2.0 assay; conditions: read-out: Viability SHSY5Y.3 GI50
# In short: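 SH-SY5Y cells were exposed to serially diluted compounds in IMDM with 10% FBS and 0.1% DMSO for 72 hours at 37° C., 5% CO2. Viability was measured by CellTiter-Glo 2.0 luminescence, with medium-only wells as blank.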
# MYB mRNA [5] = experiment: Splicing RT-qPCR assay (THP), Table 2A; conditions: Table 2A (THP); for AC50: AJ mRNA increase, read-out: MYB AJ (increase in alternative junction mRNA, AC50); for IC50: CJ mRNA decrease, read-out: MYB CJ (decrease in canonical junction mRNA, IC50)
Compound,IC50 (HTT mRNA [1]),IC50 (MYB mRNA [2]),AC50 (HTT mRNA [3]),IC50 (HTT mRNA [3]),GI50 [4],AC50 (MYB mRNA [5]),IC50 (MYB mRNA [5])
"Cc1cn2cc(NC(=O)c3ccc(N4CCC(N[C@@H]5C[C@@H]5O)CC4)c4cn(C)nc34)cc(F)c2n1 [Compound 371, N-(8-fluoro-2-methyl-imidazo-[1,2-a]pyridin-6-yl)-4-(4-(((1R,2S)-2-hydroxy-cyclopropyl)-amino)piperidin-1-yl)-2-methyl-2H-indazole-7-carboxamide hydrochloride]",1000 to 10000 nM,100 to 1000 nM,1000 to 10000 nM,1000 to 10000 nM,1000 to 10000 nM,< 100 nM,100 to 1000 nM
"CCNC1(C)CCN(c2cc(F)c(C(=O)Nc3cn4cc(C)nc(C)c4n3)c3nn(C)cc23)CC1 [Compound 375, N-(6,8-dimethylimidazo[1,2-a]pyrazin-2-yl)-4-[4-(ethylamino)-4-methyl-1-piperidyl]-6-fluoro-2-methyl-indazole-7-carboxamide]",1000 to 10000 nM,< 100 nM,1000 to 10000 nM,1000 to 10000 nM,100 to 1000 nM,< 100 nM,< 100 nM
"C#CCCC1(CCN2CCN(c3ccc(C(=O)Nc4cc(F)c5nc(C)cn5c4)c4nn(C)cc34)CC2)N=N1 [Compound 376, 4-(4-(2-(3-(but-3-yn-1-yl)-3H-diazirin-3-yl)ethyl)piperazin-1-yl)-N-(8-fluoro-2-methyl-imidazo-[1,2-a]pyridin-6-yl)-2-methyl-2H-indazole-7-carboxamide bis(2,2,2-trifluoroacetate)]",1000 to 10000 nM,100 to 1000 nM,> 10000 nM,1000 to 10000 nM,1000 to 10000 nM,100 to 1000 nM,100 to 1000 nM
"Cc1cn2cc(NC(=O)c3c(F)cc(N4CCC(NC5CC5)CC4)c4cn(C)nc34)c(Oc3ccccc3)c(F)c2n1 [Compound 377, 4-[4-(cyclopropylamino)-1-piperidyl]-6-fluoro-N-(8-fluoro-2-methyl-7-phenoxyimidazo [1,2-a]pyridin-6-yl)-2-methyl-indazole-7-carboxamide]",< 100 nM,< 100 nM,< 100 nM,< 100 nM,< 100 nM,< 100 nM,< 100 nM
"Cc1cn2cc(NC(=O)c3ccc(N4CCC(NC5(CF)CC5)CC4)c4cn(C)nc34)cc(F)c2n1 [Compound 378, 4-[4-[[1-(fluoromethyl)cyclopropyl]amino]-1-piperidyl]-N-(8-fluoro-2-methyl-imidazo[1,2-a]pyridin-6-yl)-2-methyl-indazole-7-carboxamide]",1000 to 10000 nM,< 100 nM,1000 to 10000 nM,1000 to 10000 nM,100 to 1000 nM,< 100 nM,< 100 nM
"CCNC1CCN(c2cc(F)c(C(=O)Nc3cn4cc(CO)nc(C)c4n3)c3nn(C)cc23)CC1 [Compound 379, 4-[4-(ethylamino)-1-piperidyl]-6-fluoro-N-[6-(hydroxymethyl)-8-methyl-imidazo[1,2-a]pyrazin-2-yl]-2-methyl-indazole-7-carboxamide]",> 10000 nM,1000 to 10000 nM,> 10000 nM,> 10000 nM,> 10000 nM,1000 to 10000 nM,1000 to 10000 nM
"CCNC1CCN(c2cc(F)c(C(=O)Nc3nc4c(C)nc(C)cc4o3)c3nn(C)cc23)CC1 [Compound 380, N-(4,6-dimethyl-oxazolo-[4,5-c]-pyridin-2-y1)-4-[4-(ethylamino)-1-piperidy1]-6-fluoro-2-methyl-indazole-7-carboxamide]",> 10000 nM,1000 to 10000 nM,> 10000 nM,> 10000 nM,> 10000 nM,1000 to 10000 nM,1000 to 10000 nM
"CCNC1CCN(c2cc(F)c(C(=O)Nc3cn4ccncc4n3)c3nn(C)cc23)CC1 [Compound 381, 4-[4-(ethylamino)-1-piper-idyl]-6-fluoro-N-imidazo [1,2-a]-pyrazin-2-yl-2-methyl-indazole-7-carboxamide]",1000 to 10000 nM,1000 to 10000 nM,1000 to 10000 nM,1000 to 10000 nM,1000 to 10000 nM,1000 to 10000 nM,1000 to 10000 nM
"Cc1cn2cc(NC(=O)c3c(F)cc(N4CCC(NC5CC5)CC4)c4cn(C)nc34)c(OC3CC3)c(F)c2n1 [Compound 382, N-[7-(cyclopropoxy)-8-fluoro-2-methyl-imidazo [1,2-a]-pyridin-6-yl]-4-[4-(cyclopropylamino)-1-piperidyl]-6-fluoro-2-methyl-indazole-7-carboxamide]",< 100 nM,< 100 nM,< 100 nM,< 100 nM,< 100 nM,< 100 nM,< 100 nM
"CCNC1CCN(c2cc(F)c(C(=O)Nc3cn4cc(CF)nc(C)c4n3)c3nn(C)cc23)CC1 [Compound 383, 4-(4-(ethylamino)piperidin-1-yl)-6-fluoro-N-(6-(fluoromethyl)-8-methylimidazo[1,2-a]-pyrazin-2-yl)-2-methyl-2H-indazole-7-carboxamide 2,2,2-trifluoroacetate]",> 10000 nM,< 100 nM,100 to 1000 nM,> 10000 nM,1000 to 10000 nM,< 100 nM,< 100 nM
"CCNC1CCN(c2cc(F)c(C(=O)Nc3cn4ccnc(C)c4n3)c3nn(C)cc23)CC1 [Compound 384, 4-[4-(ethylamino)-1-piperidyl]-6-fluoro-2-methyl-N-(8-methyl-imidazo[1,2-a]-pyrazin-2-yl)-indazole-7-carbox-amide]",> 10000 nM,> 10000 nM,> 10000 nM,> 10000 nM,> 10000 nM,> 10000 nM,> 10000 nM
"CCNC1CCN(c2ccc(C(=O)Nc3cc(OC)c4nc(C)sc4c3)c3nn(C)cc23)CC1 [Compound 385, 4-[4-(ethylamino)-1-piperidyl]-N-(4-methoxy-2-methyl-1,3-benzothiazol-6-yl)-2-methyl-indazole-7-carboxamide 2,2,2-trifluoroacetate]",> 10000 nM,> 10000 nM,1000 to 10000 nM,> 10000 nM,1000 to 10000 nM,100 to 1000 nM,> 10000 nM
"Cc1cn2cc(NC(=O)c3c(F)cc(N4CCC(NC5CC5)CC4)c4cn(C)nc34)cc(Oc3ccnnc3)c2n1 [Compound 386, 4-[4-(cyclopropylamino)-1-piperidyl]-6-fluoro-2-methyl-N-(2-methyl-8-pyridazin-4-yloxy-imidazo-[1,2-a]-pyridin-6-yl)indazole-7-carboxamide]",> 10000 nM,100 to 1000 nM,1000 to 10000 nM,> 10000 nM,> 10000 nM,100 to 1000 nM,100 to 1000 nM
"CCNC1CCN(c2cc(F)c(C(=O)Nc3cc4cn(C)nc4cc3OC)c3nn(C)cc23)CC1 [Compound 387, 4-[4-(ethyl-amino)-1-piperidyl]-6-fluoro-N-(6-methoxy-2-methyl-indazol-5-yl)-2-methyl-indazole-7-carboxamide]",100 to 1000 nM,< 100 nM,100 to 1000 nM,100 to 1000 nM,1000 to 10000 nM,< 100 nM,< 100 nM
"CCNC1CCN(c2ccc(C(=O)Nc3cc4cn(C)nc4cc3OC)c3nn(C)cc23)CC1 [Compound 388, 4-[4-(ethylamino)-1-piperidyl]-N-(6-methoxy-2-methyl-indazol-5-yl)-2-methyl-indazole-7-carboxamide]",1000 to 10000 nM,100 to 1000 nM,1000 to 10000 nM,1000 to 10000 nM,1000 to 10000 nM,100 to 1000 nM,100 to 1000 nM
